Where two headings read alike, the source gives them in different places.
Experiments:
[1] = test system: eyes of New Zealand White rabbits; test: Pupil diameter, pupillary response and mortality observations after topical ocular instillation in rabbits (Example 10); conditions: rabbit; 2 drops of 50 μL topically
Method: The objective of this study was to evaluate the ocular pharmacokinetics of a 2% Mecamylamine in a GELRITE solution up to 6 hours following topical instillation into the eyes of New Zealand White rabbits. Nine New Zealand White female rabbits of minimum age of 9 weeks and weight 2-3 kg were obtained from The Rabbit Source (Ramona, Calif.) were used in the study.
On day 1, 2 drops of 50 μL of mecamylamine or vehicle were administered topically into the appropriate eye(s) of each animal as described in Table 13. The time of each dose administration was recorded.

[2] = Toxicokinetics in the 14-day dog study (Example 13); assay type: in vivo; conditions: for Cmax: both sexes, beagle, dog, in vivo, topical or ocular
Method: An ophthalmic saline solution formulation containing 3% mecamylamine hydrochloride (HCl) was evaluated for toxicological effects and drug pharmacokinetics in healthy beagle dogs. The drug solution or a matching vehicle control was administered 2, 4 and […] for 14 or 15 consecutive days to both eyes of Beagle dogs.
Animals were dosed 2, 4 or 6 times a day for 14 consecutive days for males or 15 consecutive days for females. The dose (50 microliters) was administered to the globe of the eye on each dosing occasion. Mortality and clinical observations were evaluated twice daily. Ocular observations were evaluated according to the Draize scoring system twice daily (Draize et al., (1944) J. Pharm. Exp. Ther. 82: 377-390, incorporated by reference herein). All eyes from all animals had ophthalmology examinations using an indirect ophthalmoscope and slit lamp and were evaluated according to McDonald and Shadduck (McDonald & Shadduck (1977) Advances in Modern Toxicology 4: 162 (New York, Wiley), hereby incorporated by reference herein) prior to treatment initiation and 1-2 hours following the final dosing of Groups 1 and 4 on Days 7 and 14. Approximate pupil size was determined for each animal prior to study initiation, at least 30 minutes following the final daily dose on Days 1 and 8 and prior to terminal sacrifice on Days 15/16. Electroretinograms (ERG) were obtained from all animals prior to treatment initiation and on Day 14. Blood samples for evaluation of hematology, coagulation and clinical chemistry parameters were collected prior to treatment initiation and prior to terminal sacrifice on Days 15/16. Selected tissues were harvested at necropsy, selected organs weighed, and selected tissues from all animals were evaluated microscopically.

[3] = Ocular bioavailability following topical ocular administration of 2% isotonic or in situ gel-forming solution (Examples 5, 6); assay type: in vivo, New Zealand White rabbit; conditions: rabbit
Excerpt: The objective of this study was to determine the pharmacokinetics of mecamylamine, administered either as an isotonic solution (prepared as in Example 3) or in situ gel-forming solution (as prepared in Example 4), in the plasma, vitreous humor and retina of the eyes when applied topically to the surface of the eye.
The study comprised 2 groups (N=4/group; 8 rabbits total) of male NZW rabbits each weighing approximately 2-3 kg and obtained from Kralek Farms (Turlock, Calif.). […] For both groups, samples of the vitreous(≧0.1 ml) were withdrawn at 6 time points (one withdrawal per eye): pre-dose, 30 min, 1 (sacrifice), 3, 6, 12, and 24 (sacrifice) hr. At all time points, only duplicate vitreous fluid samples (each coming from different eye from different animals) were collected in order to minimize pain and damage to rabbit eyes.
Blood for plasma(≧0.5 ml) and intra-vitreal fluid (˜0.1 ml) were collected at 0, 30, 60 min from each animal with sacrifice for 2 animals/group at 60 minutes. […]
A 0.5 mg/mL stock of mecamylamine hydrochloride USP in DMSO was prepared and used as the working standard to produce the calibration standards for quantification of the mecamylamine content in various samples collected as described above. […]
Each tissue sample collected was weighed. […] The samples were analyzed using LC/MS/MS and quantified using the calibration standards prepared in plasma as described above.

[4] = Single- and multiple-dose rabbit ocular pharmacokinetics (Example 7); assay type: in vivo, Dutch-belted rabbit
Method: Dutch-belted male rabbits (Covance, Denver, Pa.) aged 2.5 to 4.5 months and with weights of 1.5 to 2.5 kg were given a 3% solution of mecamylamine hydrochloride (polymer-free solution) by ocular installation either as a single dose or 6 doses (50 microliters per dose), approximately 1.5 hours apart. Serial blood samples (approximately 0.5 mL each) were collected by direct venipuncture from a marginal ear vein into a blood collection tube containing EDTA as anticoagulant from various animal groups at 0.5 hours post dose, 2 hours post dose. A terminal blood sample was obtained from all animals just prior to euthanasia. Animals were euthanized 1, 3 or 6 hours after administration of the drug solution. Ocular tissues (listed in Table 7) were obtained after euthanasia.
The concentration of mecamylamine in plasma and ocular tissues was measured using an LC MS/MS method as described in Example 6.

[5] = rabbit, 3% solution, 1 hour to 6 hours after dosing

## CNC1(C)C2CCC(C2)C1(C)C (centres unmarked) [mecamylamine, N-2,3,3-tetramethylbicyclo(2.2.1)heptan-2-amine]
[1]
  mortality: no mortality
[2]; Beagle dog, Day 13 versus Day 1, any group
  accumulation ratios: ≤ 1.14
[2]; 3 mg/eye/day, Group 2 (2 doses/eye/day, 3 mg/eye/day), read-out: Cmax, mean
  Cmax: 49 ng/mL
[2]; 3 mg/eye/day, Group 2, read-out: Cmax, highest overall value
  Cmax: 185 ng/mL
[2]; 6 mg/eye/day, Group 3 (4 doses/eye/day, 6 mg/eye/day), read-out: Cmax, mean
  Cmax: 44 ng/mL
[2]; 9 mg/eye/day, Group 4 (6 doses/eye/day, 9 mg/eye/day), read-out: Cmax, mean
  Cmax: 64 ng/mL
[3]
  retinal/choroidal tissue:plasma ratio, topical compared to systemic administration: at least 40 fold
[3]; topical ocular
  levels of mecamylamine in erythrocytes (red blood cells) versus plasma: comparable
[4]; male, Dutch-belted, retina/choroid and plasma, topical, 50 µL of 3% solution per dose, rabbit, 3% solution, read-out: ratio of mecamylamine concentration in the retina/choroid to the plasma
  Kp: 37 to 147
[4]; rabbit, 3% solution
  Plasma levels: ≤ 50 ng/mL
[4]; [5]
  Mean peak levels in aqueous humor: 310 to 920 ng/mL
  Mean peak levels in the retina/choroid: 171 to 510 ng/g
[4]; rabbit, 1 hour after 6 hourly doses
  mecamylamine concentration in the retina/choroid after 6 hourly doses relative to single dose: five-fold
[4]; rabbits, topical ocular, single dose and multi-dose studies
  mean maximum concentration of mecamylamine detected in plasma: less than 70 ng/mL
